What is called GI50 is the concentration that inhibits growth by half.

The species entered for series [1] is Homo sapiens. Put plainly: Inhibition of UBE1/UbcH5c/MDM2/MDM2(Auto) (unknown origin) assessed as protein activity at […] by electrochemiluminescence based ubiquitin profiler panel assay. The arrangement: scale not given: the % may be the effect or the level left.
The next series deals with BXPC-3. The series can be described thus: Antiproliferative activity against human BxPC3 cells incubated for 48 hrs by SRB assay. The settings on record: BXPC-3, 48 h. The series is classed as functional. On the technique in general: The SRB assay estimates cell density from bound dye.
Another series concerns U-87 MG. The series can be described thus: Antiproliferative activity against human U87MG cells incubated for 48 hrs by SRB assay. The series is classed as functional, U-87MG ATCC.
Series [2] in a line: Antiproliferative activity against NHDF incubated for 48 hrs by SRB assay. Format: cell-based. Particulars: human, NHDF cells.
The species entered for series [3] is Homo sapiens. The series can be described thus: Inhibition of UBE1/UbcH5c/MDM2/CK1d/p53 (unknown origin) assessed as protein activity at […] by electrochemiluminescence based ubiquitin profiler panel assay. The arrangement: scale not given: the % may be the effect or the level left.
Another series relates to RPMI-8226. The series can be described thus: Antitumor activity against human RPMI8226 cells xenografted in SCID nude mouse assessed as inhibition of tumor growth at 50 mg/kg, po dosed daily for 45 days. Format: functional. The settings on record: RPMI-8226, po, 1080 h, read-out: TGI. A general note: A xenograft is tissue or cells of one species grown in another, often human tumour cells in immunodeficient mice.

The species entered for series [4] is Homo sapiens. The series can be described thus: Inhibition of UBE1/UbcH5c/MuRF1/Cardiac Troponin (unknown origin) assessed as protein activity at […] by electrochemiluminescence based ubiquitin profiler panel assay. The arrangement: scale not given: the % may be the effect or the level left.
A further series concerns REH. The series can be described thus: Antiproliferative activity against human REH cells incubated for 48 hrs by SRB assay. The series is classed as functional.
The subject of a further series is HL-60. The series can be described thus: Antiproliferative activity against human HL60 cells incubated for 48 hrs by SRB assay. Particulars: HL-60, 48 h. Format: functional.
For another series, the system named is SK-MEL-5. The series can be described thus: Antiproliferative activity against human SK-MEL-5 cells incubated for 48 hrs by SRB assay. Format: functional. The settings on record: SK-MEL-5, 48 h.
The species entered for series [5] is Homo sapiens. Put plainly: Inhibition of UBE1/UbcH5c/VHL/HIF-1a (unknown origin) assessed as protein activity at […] by electrochemiluminescence based ubiquitin profiler panel assay. Also noted: scale not given: the % may be the effect or the level left.
For series [6], the species on record is Homo sapiens. The series can be described thus: Inhibition of UBE1/UbcH4/c-Cbl/Kit (unknown origin) assessed as protein activity at […] by electrochemiluminescence based ubiquitin profiler panel assay. Also noted: scale not given: the % may be the effect or the level left.
For another series, the system named is K562. Put plainly: Antiproliferative activity against human K562 cells incubated for 48 hrs by SRB assay. Format: functional. Particulars: K562, 48 h.
The species named for series [7] is Homo sapiens. Put plainly: Inhibition of UBE1/UbcH7/Parkin/p38/JTV-1 (unknown origin) assessed as protein activity at […] by electrochemiluminescence based ubiquitin profiler panel assay. Also noted: scale not given: the % may be the effect or the level left.
The test system of a further series is KB. The series can be described thus: Antiproliferative activity against human KB cells incubated for 48 hrs by SRB assay. Format: functional.
Series [8] relates to Mus musculus. The series can be described thus: Toxicity in human RPMI8226 cells xenografted SCID nude mouse assessed as induction of adverse events at 25 mg/kg, po dosed daily for 45 days. Format: organism-based. Particulars: in vivo, 1080 h.
Series [9] relates to Mus musculus. The series can be described thus: Toxicity in human RPMI8226 cells xenografted SCID nude mouse assessed as effect on body weight at 50 mg/kg, po dosed daily for 45 days. The series is classed as organism-based. Particulars: in vivo, 1080 h.
The species named for series [10] is Homo sapiens. Put plainly: Inhibition of UBE1/UbcH6/Parkin/p38/JTV-1 (unknown origin) assessed as protein activity at […] by electrochemiluminescence based ubiquitin profiler panel assay. The arrangement: scale not given: the % may be the effect or the level left.
The subject of a further series is HT-29. Put plainly: Antiproliferative activity against human HT-29 cells incubated for 48 hrs by SRB assay. Format: functional. The settings on record: HT-29, 48 h.
The species entered for series [11] is Homo sapiens. The series can be described thus: Inhibition of UBE1/UbcH4/c-Cbl/Src (unknown origin) assessed as protein activity at […] by electrochemiluminescence based ubiquitin profiler panel assay. Also noted: scale not given: the % may be the effect or the level left.
A short description of series [12]: Antiproliferative activity against human ZR-75 cells incubated for 48 hrs by SRB assay. Format: functional. Particulars: ZR75, 48 h.
Series [13] is filed under the species Homo sapiens. Put plainly: Inhibition of UBE1/UbcH4/VHL/HIF-1a (unknown origin) assessed as protein activity at […] by electrochemiluminescence based ubiquitin profiler panel assay. Also noted: scale not given: the % may be the effect or the level left.

Where only a bound is given, the exact number is not on record here.

On to `O=C(Nc1ccncc1)c1ccc(CNC2=C(Cl)C(=O)c3ccccc3C2=O)cc1`, for which the Activity in the series filed under Homo sapiens [1] stood at 105%; in the series listed under Homo sapiens [3] it was 75%; in the series filed under Homo sapiens [4], 92%; in the series filed under Homo sapiens [5], 100%; in the series filed under Homo sapiens [6], 86%; in the series filed under Homo sapiens [7], 72%. Further, the Activity result is “Non-Toxic” with Mus musculus [8]; “Non-Toxic” with Mus musculus [9]; 79% in the series listed under Homo sapiens [10]; 89% in the series listed under Homo sapiens [11]; 96% in the series listed under Homo sapiens [13]. Further, the GI50 in the series on BXPC-3 was determined as 1200 nM; with U-87 MG, 2500 nM; in the series on REH, 2800 nM; in the series on HL-60 it was 1600 nM; with SK-MEL-5, 210 nM; in the series with K562 it was 1700 nM. The GI50 with KB was 4000 nM; in the series on HT-29, 3800 nM; in series [12] it was above 5000 nM. In [2], this compound had a GI50 at 48 h of 6300 nM. Besides, in the series on RPMI-8226, the inhibition in vivo at 50 mg/kg is 100%.
